# Reference: article PMC11481913, “Rational design of a flavoenzyme for aerobic nicotine catabolism” (mBio, 2024)
# Target: T1, Pnao (Pseudomonas putida, UniProt F8G0P1)
# T1 construct: dimer
# Assay: FAD reduction at […] nm (stopped-flow); FAD-binding ratio by HPLC
# Details: FAD co-purified with the enzyme
# T1 sequence (F8G0P1 whole entry): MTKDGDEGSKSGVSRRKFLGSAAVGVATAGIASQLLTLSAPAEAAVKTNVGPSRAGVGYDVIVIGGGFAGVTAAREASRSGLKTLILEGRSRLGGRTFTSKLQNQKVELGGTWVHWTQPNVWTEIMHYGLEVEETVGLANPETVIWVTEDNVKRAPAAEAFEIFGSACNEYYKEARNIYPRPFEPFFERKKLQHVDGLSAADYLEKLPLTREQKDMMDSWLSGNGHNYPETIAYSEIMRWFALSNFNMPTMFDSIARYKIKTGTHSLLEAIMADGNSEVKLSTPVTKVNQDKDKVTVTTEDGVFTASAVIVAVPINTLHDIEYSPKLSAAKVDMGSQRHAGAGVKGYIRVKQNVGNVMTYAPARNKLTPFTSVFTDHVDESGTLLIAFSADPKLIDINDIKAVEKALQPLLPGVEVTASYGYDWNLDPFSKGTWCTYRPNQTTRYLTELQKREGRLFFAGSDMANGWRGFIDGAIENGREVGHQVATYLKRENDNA
smiles,measurement,value
"Cc1cc2nc3c(=O)[nH]c(=O)nc-3n(C[C@H](O)[C@H](O)[C@H](O)COP(=O)(O)OP(=O)(O)OC[C@H]3O[C@@H](n4cnc5c(N)ncnc54)[C@H](O)[C@@H]3O)c2cc1C [FAD, flavin adenine dinucleotide]",FAD reduction at 450 nm (stopped-flow); FAD-binding ratio by HPLC,the enzyme-bound FAD is transformed from the oxidized to the hydroquinone
